Measurements taken from paper PMC4588877, “Guanine nucleotide exchange factor 2 for Rab5 proteins coordinated with GLUP6/GEF regulates the intracellular transport of the proglutelin from the Golgi apparatus to the protein storage vacuole in rice endosperm” (Journal of Experimental Botany, 2015).

Columns and labels:
[1] = biological target: GLUP4/Rab5a (rice) (UniProt Q0ILQ6); experiment: SPR; BIACORE J; GLUP4/Rab5a immobilised on Sensor Chip CM5; Rab5-GEF2 or GLUP6/GEF (1.5, 3.5, 5, 6.5, 10.5 μM) applied for 120 s at 30 μl/min in 10 mM HEPES-NaOH pH 7.4, 0.15 M NaCl, 0.5 mM MgCl2, 10 mM GDP, 0.1% Triton X-100; apparent KD from association and dissociation curves
[2] = biological target: T1, Rab5c (Oryza sativa, UniProt Q75HA2); experiment: GDP/GMP-PNP exchange, Trp intrinsic fluorescence (ex […] nm, em […] nm); type: binding; details: 1 µM GST-Rab preloaded with GDP; 0.1 mM GMP-PNP; GST-GLUP6/GEF or GST-Rab5-GEF2 0-1 µM as exchange factor; 20 mM Tris-HCl pH 8.0, 150 mM NaCl, 0.5 mM MgCl2
T1 construct: gene Os03g0666500; GST fusion (pGEX 4T-1), E. coli BL21 (DE3); tag kept
T1 sequence (Q75HA2 1-203): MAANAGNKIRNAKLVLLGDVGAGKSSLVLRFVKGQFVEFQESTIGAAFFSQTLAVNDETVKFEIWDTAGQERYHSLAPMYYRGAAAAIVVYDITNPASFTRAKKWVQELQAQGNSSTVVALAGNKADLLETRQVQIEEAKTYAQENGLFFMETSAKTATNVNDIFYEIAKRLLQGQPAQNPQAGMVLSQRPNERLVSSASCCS

[3] = biological target: T2, Rab5b (Oryza sativa, UniProt Q10RN9); experiment: as above; type: binding; details: 1 µM GST-Rab preloaded with GDP; 0.1 mM GMP-PNP; GST-GLUP6/GEF or GST-Rab5-GEF2 0-1 µM as exchange factor; 20 mM Tris-HCl pH 8.0, 150 mM NaCl, 0.5 mM MgCl2
T2 construct: gene Os03g0151900; GST fusion (pGEX 4T-1), E. coli BL21 (DE3); tag kept
T2 sequence (Q10RN9 1-199): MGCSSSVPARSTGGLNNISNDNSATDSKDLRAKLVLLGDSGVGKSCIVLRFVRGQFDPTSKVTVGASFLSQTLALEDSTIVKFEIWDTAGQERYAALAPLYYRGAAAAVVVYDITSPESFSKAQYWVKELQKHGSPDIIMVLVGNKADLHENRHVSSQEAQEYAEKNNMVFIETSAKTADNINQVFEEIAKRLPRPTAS

[4] = biological target: T3, GLUP4/Rab5a (Oryza sativa, UniProt Q0ILQ6); experiment: as above; type: binding; details: 1 µM GST-Rab preloaded with GDP; 0.1 mM GMP-PNP; GST-Rab5-GEF2 0-1 µM as exchange factor; 20 mM Tris-HCl pH 8.0, 150 mM NaCl, 0.5 mM MgCl2
T3 construct: GST fusion (pGEX 4T-1), E. coli BL21 (DE3); tag kept
T3 sequence (Q0ILQ6 1-203): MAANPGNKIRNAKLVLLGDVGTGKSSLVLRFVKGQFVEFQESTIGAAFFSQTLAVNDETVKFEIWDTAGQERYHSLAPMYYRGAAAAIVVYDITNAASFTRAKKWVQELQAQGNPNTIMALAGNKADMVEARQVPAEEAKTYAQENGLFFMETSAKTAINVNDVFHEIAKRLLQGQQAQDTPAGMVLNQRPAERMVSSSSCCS

| Kd [1] [nM] | Molecule | GDP/GMP-PNP exchange, Trp intrinsic fluorescence (ex 298 nm, em 340 nm) [2] | GDP/GMP-PNP exchange, Trp intrinsic fluorescence (ex 298 nm, em 340 nm) [3] | GDP/GMP-PNP exchange, Trp intrinsic fluorescence (ex 298 nm, em 340 nm) [4] |
| --- | --- | --- | --- | --- |
| 1700 | Rab5-GEF2 (natural protein) | – | – | – |
| 2100 | GLUP6/GEF (natural protein) | – | – | – |
| – | Nc1nc2c(ncn2[C@@H]2O[C@H](COP(=O)(O)OP(=O)(O)NP(=O)(O)O)[C@@H](O)[C@H]2O)c(=O)[nH]1 [GMP-PNP] | Rab5b and Rab5c were activated by GLUP6/GEF in a dose-dependent manner | Rab5b and Rab5c were activated by GLUP6/GEF in a dose-dependent manner | Rab5-GEF2 activated GLUP4/Rab5a, the plant-specific Rab5b, and Rab5c in a dose-dependent manner |
